From article PMC6688508 (Journal of medicinal chemistry, 2019)

Assays:
[1] = Mouse pharmacokinetic study, plasma and brain; type: in vivo, male Swiss Albino mice; conditions: mice
MOR [2] = target: T1, MOR (Homo sapiens, UniProt P35372); conditions: in vitro; cited from earlier work
MOR [3] = target: T1, MOR; conditions: in vitro; cited from earlier work; remark: listed apart in the source
[4] = 50 mg/kg intraperitoneal injection

T1 sequence (P35372 whole entry): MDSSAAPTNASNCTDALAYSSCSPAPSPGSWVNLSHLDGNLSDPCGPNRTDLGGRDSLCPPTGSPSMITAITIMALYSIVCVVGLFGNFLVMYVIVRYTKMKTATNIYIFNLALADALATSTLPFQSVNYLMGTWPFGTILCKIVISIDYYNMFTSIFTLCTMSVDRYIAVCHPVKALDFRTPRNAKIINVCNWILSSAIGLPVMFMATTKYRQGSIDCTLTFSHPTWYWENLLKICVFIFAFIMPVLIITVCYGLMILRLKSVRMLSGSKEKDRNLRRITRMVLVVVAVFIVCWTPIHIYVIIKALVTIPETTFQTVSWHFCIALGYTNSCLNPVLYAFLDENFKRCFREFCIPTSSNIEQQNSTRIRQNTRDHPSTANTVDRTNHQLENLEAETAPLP

Compound | tolerability / clinical signs ([1]; 50 mg/kg intraperitoneal) | peak concentration in the brain [1, 4] | peak concentration in the plasma [1, 4] | EMAX, activation of G protein signaling (MOR [2]) | EMAX, recruiting β-arrestin (MOR [3])
Nc1cc(Oc2nccc3occc23)ccc1-c1cccc2nccn12 [Compound 40, 5-(Furo[3,2-c]pyridin-4-yloxy)-2-(imidazo[1,2-a]pyridin-5-yl)-aniline] | well tolerated and no clinical signs were observed | approximately 100 μM | approximately 100 μM |  | 
COc1ccsc1CNCC[C@@]1(c2ccccn2)CCOC2(CCCC2)C1 [TRV130] |  |  |  | 84% | 15%
